Literature values, collected in patent publication US20070254858A1, “Contraceptive and Acne Medication Combination and Treatment of Acne and Other Diseases with Reduced Side Effects” (priority 2006, published 2007).

Legend:
[1] = system: androgen (testosterone-like) activity; conditions: 1 mg of progestin; activity of 1 mg of norethindrone taken as baseline
[2] = system: progesterone activity; conditions: 1 mg of progestin; activity of 1 mg of norethindrone taken as baseline
[3] = in vivo
[4] = system: sebaceous gland / sebocytes
[5] = system: severe acne; conditions: within 12 to 16 weeks of isotretinoin treatment

C#C[C@]1(O)CC[C@H]2[C@@H]3CCC4=CC(=NO)CC[C@@H]4[C@H]3CC[C@@]21CC (mixture of isomers) [norelgestromin]
Androgen Activity [1]: 1.9
Progestational Activity [2]: 1.3

C#C[C@]1(OC(C)=O)CC[C@H]2[C@@H]3CCC4=CC(=NO)CC[C@@H]4[C@H]3CC[C@@]21CC (mixture of isomers) [norgestimate]
Progestational Activity [2]: 1.3

C#CC1(O)CC[C@H]2[C@@H]3CCC4=CC(=O)CC[C@@H]4[C@H]3CC[C@@]21CC (mixture of isomers) [dl-norgestrel]
Progestational Activity [2]: 2.6

C#C[C@]1(O)CC[C@H]2[C@@H]3CCC4=CCCC[C@@H]4[C@H]3C(=C)C[C@@]21CC [desogestrel]
Progestational Activity [2]: 9

C[C@]12CCC(=O)C=C1[C@@H]1C[C@@H]1[C@H]1[C@@H]3[C@@H]4C[C@@H]4[C@@]4(CCC(=O)O4)[C@@]3(C)CC[C@@H]12 [drospirenone]
Androgen Activity [1]: 0
Progestational Activity [2]: 1.5

C#C[C@]1(OC(C)=O)CC[C@H]2[C@@H]3CCC4=C[C@@H](OC(C)=O)CC[C@@H]4[C@H]3CC[C@@]21C [ethynodiol diacetate]
Progestational Activity [2]: 1.4

CC1=C(/C=C/C(C)=C/C=C/C(C)=C\C(=O)O)C(C)(C)CCC1 [isotretinoin, 13-cis-retinoic acid]
most significant side effect [3]: teratogenicity (birth defects)
reduction of sebocyte lipid synthesis ([4]; daily doses as low as 0.1 mg/kg after four weeks): 75%
reduction of sebaceous gland size ([4]; in vivo): up to 90%
effect of food on absorption (drug taken with food): absorption is enhanced
accumulation in the skin (during long term administration): no progressive accumulation
parent drug in urine (oral isotretinoin): No parent drug is identified in the urine
placental transfer (oral isotretinoin): crosses the placenta
half-life (oral isotretinoin, compared to etretinate): 7 to 37 h
people with severe acne in complete or near complete cure [5]: Up to 90%

C#C[C@]1(OC(C)=O)CC[C@H]2[C@@H]3CCC4=CC(=O)CC[C@@H]4[C@H]3CC[C@@]21C [norethindrone acetate]
Progestational Activity [2]: 1.2

C#C[C@]1(O)CC[C@H]2[C@@H]3CCC4=CC(=O)CC[C@@H]4[C@H]3CC[C@@]21C [norethindrone]
Progestational Activity [2]: 1
